Target: GLP-1 receptor (Homo sapiens (Human), UniProt P43220)
Assay: Agonist activity against GLP-1 receptor, CRE-luciferase reporter (ONE-Glo) in CHO-K1/CRE-luc/GLP-1 receptor cells
Assay type: cell-based
Settings: 6 h incubation
Text: This experiment was intended to test the agonist activity of the compound molecules against the GLP-1 receptor and evaluate the in vitro activity of the molecules according to EC50. The experiment adopted a ONE-Glo™ Luciferase Assay System (Promega, E6110). Under the action of compound molecules, GLP-1R downstream signaling pathways were activated to cause elevated cAMP level. The combination of cAMP and CRE could start the transcription expression of CRE downstream luciferase genes, the luciferase could emit fluorescence when reacting with substrates thereof, and the activity of the compound for agonizing GLP-1 receptors was reflected by measuring fluorescence signals through a ONE-Glo™ reagent.
Stably-expressed CHO-K1/CRE-luc/GLP-1 receptor cell strains (self-construction of GLP-1 receptor plasmid; CRE-luc plasmid Promega E8471) were constructed. CHO-K1/CRE-luc/GLP-1 receptor cells were digested, and resuspended after centrifugation. […] The plate was incubated in an incubator for 16 h (37° C., 5% CO2).
The compound was dissolved in DMSO to prepare a stock solution with an initial concentration of 20 mM. The starting concentration of the small molecule compound was 0.2 mM, and the compound underwent 3-fold serial dilution for a total of 10 concentration points, with DMSO at the 11th point. To another 96-well plate was added 95 μL of cell culture medium (DME/F-12+10% FBS), 5 μL of test samples with different concentrations were added to each well, followed by uniform mixing, and then 10 μL of test samples with different concentrations were added to each well, with two duplicate wells set for each sample. The plate was incubated in an incubator for 6 h (37° C., 5% CO2). The 96-well cell culture plate was taken out, and 100 μL of ONE-Glo™ reagent was added to each well, followed by incubation at room temperature for 10 min. The plate was placed in a microplate reader (EnVision 2105, PE) for determination of chemiluminescence.
Data were processed and analyzed using Microsoft Excel and Graphpad Prism 5.

Sequence of GLP-1 receptor (P43220 24-463): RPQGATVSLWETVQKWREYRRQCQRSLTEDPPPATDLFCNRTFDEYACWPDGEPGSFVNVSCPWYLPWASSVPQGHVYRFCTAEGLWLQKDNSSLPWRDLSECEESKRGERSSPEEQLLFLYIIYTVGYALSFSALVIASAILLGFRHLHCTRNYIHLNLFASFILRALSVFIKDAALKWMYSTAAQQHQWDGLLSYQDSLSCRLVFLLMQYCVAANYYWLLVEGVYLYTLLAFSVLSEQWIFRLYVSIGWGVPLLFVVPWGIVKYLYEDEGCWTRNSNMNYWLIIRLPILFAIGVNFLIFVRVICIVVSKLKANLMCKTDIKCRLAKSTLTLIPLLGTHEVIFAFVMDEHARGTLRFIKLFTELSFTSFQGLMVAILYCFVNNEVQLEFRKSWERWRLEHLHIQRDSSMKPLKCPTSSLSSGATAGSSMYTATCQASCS

EC50: 0.12 nM | Emax: 107%
SMILES: O=C(O)c1ccc2nc(CN3CCC(c4cccc5c4O[C@@H](c4ccc(Cl)cc4F)CO5)CC3)n(C[C@@H]3CCO3)c2n1 [Example 5, 2-((4-((S)-3-(4-Chloro-2-fluorophenyl)-2,3-dihydrobenzo[b][1,4]dioxan-5-yl)piperidin-1-yl)methyl)-3-((S)-oxetan-2-ylmethyl)-3H-imidazo[4,5-b]pyridine-5-carboxylic acid]
